Test results: US11807693B2 (priority 2014, dated 2023)
Where two headings read alike, the source gives them in different places. Starred links: 1 amine or outer side, 2 acyl side, 3 side chain; linkers in the order of their positions; H or OH if unused. Non-standard residues stand in square brackets, D forms with d. Residues, ends and D or L forms follow the SMILES beside them. ξ: configuration not given here. *: point of attachment. dBip = N[C@H](Cc1ccc(-c2ccccc2)cc1)C(=O)O; Oic = O=C(O)[C@@H]1C[C@@H]2CCCC[C@@H]2N1; Phe(4-Cl) = N[C@@H](Cc1ccc(Cl)cc1)C(=O)O; γGlu = O=C(O)[C@H](CCC(=O)[*:2])N[*:1]; 2Nal = N[C@@H](Cc1ccc2ccccc2c1)C(=O)O; d(β3hF) = N[C@@H](CC(=O)O)Cc1ccccc1; NMeR = CN[C@@H](CCCNC(=N)N)C(=O)O; Palmitoyl = CCCCCCCCCCCCCCCC(=O)*; Tridecanoyl = CCCCCCCCCCCCC(=O)*; hArg = N=C(N)NCCCC[C@H](N)C(=O)O; Cha = N[C@@H](CC1CCCCC1)C(=O)O; αMeL = CC(C)C[C@](C)(N)C(=O)O; Pip = O=C(O)[C@@H]1CCCCN1; Nle = CCCC[C@H](N)C(=O)O; ξαMeP = CC1(C(=O)O)CCCN1; ξβ3hV = CC(C)C(N)CC(=O)O; Deg = CCC(N)(CC)C(=O)O; AEEA = NCCOCCOCC(=O)O; Aib = CC(C)(N)C(=O)O; βAla = NCCC(=O)O

What was measured:
rat APJ receptor = biological target: T1, rat APJ receptor (Rattus norvegicus, UniProt Q9JHG3); experiment: [35S] GTPγS assay, rat APJ receptor; type: biochemical
T1 construct: expressed in transfected cells
T1 sequence (Q9JHG3 1-377): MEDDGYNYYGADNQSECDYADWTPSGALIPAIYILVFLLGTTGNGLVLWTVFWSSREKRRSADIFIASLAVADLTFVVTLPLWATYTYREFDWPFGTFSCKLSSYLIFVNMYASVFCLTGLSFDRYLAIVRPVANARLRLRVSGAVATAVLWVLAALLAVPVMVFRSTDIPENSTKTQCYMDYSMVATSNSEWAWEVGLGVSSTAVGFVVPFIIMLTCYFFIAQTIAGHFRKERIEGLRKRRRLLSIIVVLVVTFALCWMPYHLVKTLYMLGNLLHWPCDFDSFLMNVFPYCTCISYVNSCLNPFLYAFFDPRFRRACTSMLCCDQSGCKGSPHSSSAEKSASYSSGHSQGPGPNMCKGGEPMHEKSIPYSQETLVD
Method: The membranes were incubated with modified peptides in the assay buffer. […] Bound [^35S] GTPγS was separated from free radiolabel by filtration. The filter bound radioactivity was determined by liquid scintillation counting.

[1] = In vitro stability in rat plasma; type: in vitro ADME
Method: (§1) Apelin peptides were spiked into rat plasma, liver homogenate, and kidney homogenate, which were obtained from commercial sources, to a final concentration of 5 μM. The samples were then incubated at 37° C. over a period of 4 hr. […] In a typical experiment, an aliquot of 100 μL of sample was taken from the incubation vial, followed by addition of 300 μL of MeOH containing internal standard. The quenched sample was centrifuged at 5500 g for 15 min after 15 min vortex in room temperature. The supernatant was then analyzed by high resolution LC-MS. […] In vitro plasma, […], and kidney stability results are shown below in Table 14.

[2] = In vitro stability in rat liver homogenate; type: in vitro ADME; conditions: tissue homogenate
Method: as §1

[3] = Table 16, read-out: EC50 Rat APJ Receptor

CCCCCCCCCCCCC(=O)N[C@@H](CCC(=O)NCCOCCOCC(=O)NCCOCCOCC(=O)N[C@@H](CCC(N)=O)C(=O)N[C@@H](CCCNC(=N)N)C(=O)N1CCC[C@H]1C(=O)N(C)[C@@H](CCCNC(=N)N)C(=O)N[C@@H](CC1CCCCC1)C(=O)N[C@@H](CO)C(=O)N[C@@H](Cc1c[nH]cn1)C(=O)N[C@@H](CCCCN)C(=O)NCC(=O)NC(C)(C)C(=O)N[C@@H](CCCC)C(=O)N1CCC[C@H]1C(=O)N[C@@H](Cc1ccc(Cl)cc1)C(=O)O)C(=O)O [compound 414] ({Tridecanoyl-γGlu-AEEA-AEEA}-QRP[NMeR][Cha]SHKG[Aib][Nle]P[Phe(4-Cl)]-OH)
EC50 (rat APJ receptor; [3]): 3.79 nM

{H2}[MerPr](10K mPEGacetamide)QRPRLSHKGPMPF{COOH} (N-terminal MerPr 10K mPEG acetamide; source: /note="N-term MerPr(10KmPEGacetamide)") [SEQ ID NO: 110, reference compound]
EC50 (rat APJ receptor; aqueous stock, absence of DMSO, read-out: rAPJ EC50): 390 nM

CCCCCCCCCCCCC(=O)N[C@@H](CCC(=O)NCCOCCOCC(=O)NCCOCCOCC(=O)N[C@H](CCC(N)=O)C(=O)N[C@@H](CCCCNC(=N)N)C(=O)N1CCC[C@H]1C(=O)N[C@H](CCCNC(=N)N)C(=O)N[C@@H](CC1CCCCC1)C(=O)N[C@@H](CO)C(=O)NC(CC)(CC)C(=O)N[C@@H](CCCCN)C(=O)NCC(=O)N1[C@H](C(=O)N[C@@H](CCCC)C(=O)N2CCC[C@H]2C(=O)N[C@@H](Cc2ccc(Cl)cc2)C(=O)O)C[C@@H]2CCCC[C@@H]21)C(=O)O [compound 451] ({Tridecanoyl-γGlu-AEEA-AEEA}-[dQ][hArg]P[dR][Cha]S[Deg]KG[Oic][Nle]P[Phe(4-Cl)]-OH)
EC50 (rat APJ receptor; [3]): 31.7 nM

CCCCCCCCCCCCCCCC(=O)N[C@@H](CCC(=O)NCCOCCOCC(=O)NCCOCCOCC(=O)N[C@H](CCC(N)=O)C(=O)N[C@@H](CCCNC(=N)N)C(=O)N1CCC[C@H]1C(=O)N(C)[C@@H](CCCNC(=N)N)C(=O)N[C@@H](CC1CCCCC1)C(=O)N[C@@H](CO)C(=O)N[C@@H](Cc1c[nH]cn1)C(=O)N[C@@H](CCCCN)C(=O)NCC(=O)N1CCCC[C@H]1C(=O)N[C@@H](CCCC)C(=O)N[C@@H](CC(=O)O)Cc1ccccc1)C(=O)O [compound 574] ({Palmitoyl-γGlu-AEEA-AEEA}-[dQ]RP[NMeR][Cha]SHKG[Pip][Nle][d(β3hF)]-OH)
EC50 (rat APJ receptor; rat APJ receptor, read-out: EC50 Rat APJ Receptor): 2.83 nM

CCCCCCCCCCCCC(=O)N[C@@H](CCC(=O)NCCOCCOCC(=O)NCCOCCOCC(=O)N[C@@H](CCC(N)=O)C(=O)N[C@@H](CCCNC(=N)N)C(=O)N1CCC[C@H]1C(=O)N(C)[C@@H](CCCNC(=N)N)C(=O)N(C)[C@@H](CC(C)C)C(=O)N[C@@H](CO)C(=O)N[C@@H](Cc1c[nH]cn1)C(=O)N[C@@H](CCCCN)C(=O)NCC(=O)N1CCC[C@H]1C(=O)N[C@@H](CCCC)C(=O)N1CCC[C@H]1C(=O)N[C@@H](Cc1ccc(Cl)cc1)C(=O)O)C(=O)O [compound 459]
EC50 (rat APJ receptor; [3]): 0.23 nM

CCCCCCCCCCCCC(=O)N[C@@H](CCC(=O)NCCOCCOCC(=O)NCCOCCOCC(=O)N[C@@H](CCC(N)=O)C(=O)N[C@@H](CCCNC(=N)N)C(=O)N1CCC[C@H]1C(=O)N(C)[C@@H](CCCNC(=N)N)C(=O)N[C@@H](CC(C)C)C(=O)N[C@@H](CO)C(=O)N[C@@H](Cc1c[nH]cn1)C(=O)N[C@@H](CCCCN)C(=O)NCC(=O)N1CCC[C@H]1C(=O)N[C@@H](CCCC)C(=O)NCCC(=O)N[C@@H](Cc1ccc(Cl)cc1)C(=O)O)C(=O)O [compound 425] ({Tridecanoyl-γGlu-AEEA-AEEA}-QRP[NMeR]LSHKGP[Nle][βAla][Phe(4-Cl)]-OH)
remaining at 4 h, 5 μM [1]: > 90% | remaining at 4 h, 5 μM [2]: < 1%

CCCCCCCCCCCCC(=O)N[C@@H](CCC(=O)NCCOCCOCC(=O)NCCOCCOCC(=O)N[C@@H](CCC(N)=O)C(=O)N[C@@H](CCCNC(=N)N)C(=O)N1CCC[C@H]1C(=O)N(C)[C@@H](CCCNC(=N)N)C(=O)N[C@@H](CC(C)C)C(=O)N[C@@H](CO)C(=O)N[C@@H](Cc1c[nH]cn1)C(=O)N[C@@H](CCCCN)C(=O)NCC(=O)N1CCC[C@H]1C(=O)N[C@@H](CCCC)C(=O)N[C@@H](Cc1ccc(Cl)cc1)C(=O)O)C(=O)O [compound 402] ({Tridecanoyl-γGlu-AEEA-AEEA}-QRP[NMeR]LSHKGP[Nle][Phe(4-Cl)]-OH)
remaining at 4 h, 5 μM [1]: 87% | remaining at 4 h, 5 μM [2]: < 1%

CCCC[C@H](NC(=O)[C@@H]1CCCN1C(=O)CNC(=O)[C@H](CCCCN)NC(=O)[C@H](Cc1c[nH]cn1)NC(=O)[C@H](CO)NC(=O)[C@H](CC(C)C)NC(=O)[C@H](CCCNC(=N)N)NC(=O)[C@@H]1CCCN1C(=O)[C@H](CCCNC(=N)N)NC(=O)[C@H](CCC(N)=O)NC(=O)[C@H](CCCNC(=N)N)NC(C)=O)C(=O)N1CCC[C@H]1C(=O)N[C@H](Cc1ccc(-c2ccccc2)cc1)C(=O)O [compound 62] (Ac-RQRPRLSHKGP[Nle]P[dBip]-OH)
remaining at 4 h, 5 μM [1]: 6.3% | remaining at 4 h, 5 μM [2]: < 1%

CCCCCCCCCCCCC(=O)N[C@@H](CCC(=O)NCCOCCOCC(=O)NCCOCCOCC(=O)N[C@H](CCC(N)=O)C(=O)N[C@@H](CCCNC(=N)N)C(=O)N1CCCC1(C)C(=O)N[C@@H](CCCCNC(=N)N)C(=O)NC(CC(=O)N[C@@H](CO)C(=O)N[C@@H](Cc1c[nH]cn1)C(=O)N[C@@H](CCCCN)C(=O)NCC(=O)N1CCCC[C@H]1C(=O)N[C@@H](CCCC)C(=O)N[C@@H](Cc1ccc(Cl)cc1)C(=O)O)C(C)C)C(=O)O (stereo partly drawn) [compound 501] ({Tridecanoyl-γGlu-AEEA-AEEA}-[dQ]R[ξαMeP][hArg][ξβ3hV]SHKG[Pip][Nle][Phe(4-Cl)]-OH)
remaining at 4 h, 5 μM [1]: > 90% | remaining at 4 h, 5 μM [2]: < 1%

CCCCCCCCCCCCC(=O)N[C@@H](CCC(=O)NCCOCCOCC(=O)NCCOCCOCC(=O)N[C@@H](CCC(N)=O)C(=O)N[C@@H](CCCCNC(=N)N)C(=O)N1CCC[C@H]1C(=O)N(C)[C@@H](CCCNC(=N)N)C(=O)N[C@@H](CC(C)C)C(=O)N[C@@H](CO)C(=O)N[C@@H](Cc1c[nH]cn1)C(=O)N[C@@H](CCCCN)C(=O)NCC(=O)N1CCC[C@H]1C(=O)N[C@@H](CCCC)C(=O)N1CCC[C@H]1C(=O)N[C@@H](Cc1ccc(Cl)cc1)C(=O)O)C(=O)O [compound 353]
remaining at 4 h, 5 μM [1]: 20% | remaining at 4 h, 5 μM [2]: 0%

CCCCCCCCCCCCC(=O)N[C@@H](CCC(=O)NCCOCCOCC(=O)NCCOCCOCC(=O)N[C@@H](CCC(N)=O)C(=O)N[C@@H](CCCCNC(=N)N)C(=O)N1CCC[C@H]1C(=O)N(C)[C@@H](CCCCNC(=N)N)C(=O)N[C@@H](CC(C)C)C(=O)N[C@@H](CO)C(=O)N[C@@H](Cc1c[nH]cn1)C(=O)N[C@@H](CCCCN)C(=O)NCC(=O)N1CCC[C@H]1C(=O)N[C@@H](CCCC)C(=O)N1CCC[C@H]1C(=O)N[C@@H](Cc1ccc(Cl)cc1)C(=O)O)C(=O)O [compound 483]
remaining at 4 h, 5 μM [1]: 37% | remaining at 4 h, 5 μM [2]: < 1%

CCCCCCCCCCCCC(=O)N[C@@H](CCC(=O)NCCOCCOCC(=O)NCCOCCOCC(=O)N[C@@H](CCC(N)=O)C(=O)N[C@@H](CCCNC(=N)N)C(=O)N1CCC[C@H]1C(=O)N(C)[C@@H](CCCNC(=N)N)C(=O)N[C@H](CC(=O)N[C@@H](CO)C(=O)N[C@@H](Cc1c[nH]cn1)C(=O)N[C@@H](CCCCN)C(=O)NCC(=O)N1CCC[C@H]1C(=O)N[C@@H](CCCC)C(=O)N1CCC[C@H]1C(=O)N[C@@H](Cc1ccc(Cl)cc1)C(=O)O)CC(C)C)C(=O)O [compound 422]
remaining at 4 h, 5 μM [1]: 37% | remaining at 4 h, 5 μM [2]: < 1%

CCCCCCCCCCCCC(=O)N[C@@H](CCC(=O)NCCOCCOCC(=O)NCCOCCOCC(=O)N[C@@H](CCC(N)=O)C(=O)N[C@H](CCCNC(=N)N)C(=O)N1CCC[C@H]1C(=O)N(C)[C@@H](CCCCNC(=N)N)C(=O)NC(CC(=O)N[C@@H](CO)C(=O)N[C@@H](Cc1c[nH]cn1)C(=O)N[C@@H](CCCCN)C(=O)NCC(=O)N1CCC[C@H]1C(=O)N[C@@H](CCCC)C(=O)N1CCC[C@H]1C(=O)N[C@@H](Cc1ccc(Cl)cc1)C(=O)O)C(C)C)C(=O)O (stereo partly shown) [compound 384]
remaining at 4 h, 5 μM [1]: 25% | remaining at 4 h, 5 μM [2]: < 1%

CCCCCCCCCCCCC(=O)N[C@@H](CCC(=O)NCCOCCOCC(=O)NCCOCCOCC(=O)N[C@@H](CCC(N)=O)C(=O)N[C@@H](CCCCNC(=N)N)C(=O)N1CCC[C@H]1C(=O)N(C)[C@@H](CCCNC(=N)N)C(=O)N[C@@](C)(CC(C)C)C(=O)N[C@@H](CO)C(=O)N[C@@H](Cc1c[nH]cn1)C(=O)N[C@@H](CCCCN)C(=O)NCC(=O)N1CCC[C@H]1C(=O)N[C@@H](CCCC)C(=O)N1CCC[C@H]1C(=O)N[C@@H](Cc1ccc2ccccc2c1)C(=O)O)C(=O)O [compound 473] ({Tridecanoyl-γGlu-AEEA-AEEA}-Q[hArg]P[NMeR][αMeL]SHKGP[Nle]P[2Nal]-OH)
remaining at 4 h, 5 μM [1]: 82% | remaining at 4 h, 5 μM [2]: < 1%

CCCC[C@H](NC(=O)[C@@H]1CCCN1C(=O)CNC(=O)[C@H](CCCCN)NC(=O)[C@H](Cc1c[nH]cn1)NC(=O)[C@H](CO)NC(=O)[C@H](CC(C)C)NC(=O)[C@H](CCCNC(=N)N)N(C)C(=O)[C@@H]1CCCN1C(=O)[C@H](CCCNC(=N)N)NC(=O)[C@H](CCC(N)=O)NC(=O)COCCOCCNC(=O)COCCOCCNC(=O)CC[C@H](NC(=O)CCCCCCC(=O)O)C(=O)O)C(=O)N1CCC[C@H]1C(=O)N[C@@H](Cc1ccc(Cl)cc1)C(=O)O [compound 508]
remaining at 4 h, 5 μM [1]: < 1% | remaining at 4 h, 5 μM [2]: < 1%
